Format in all cases: in vivo
In one assay the test system is Culex pipiens pallens. The assay can be described thus: Test Example 6: larvae of Culex pipiens pallens in treated water. The following applies: 24 h, read-out: pest death rate. The procedure:
A formulation of any one of the present compounds (7), (11), (12), (13), (17), (18t), (18c), (22), (24), (25t), (25c), (26t), (26c), (27), (29), (33), (34), (35), (36), (38), (40), (41), (43), (47), (49), (50) and (55) obtained according to Formulation Example 36 was diluted with water so that the active ingredient concentration was 500 ppm to obtain a test solution.
To 100 mL of ion-exchanged water, 0.7 ml of the test solution was added (active ingredient concentration: 3.5 ppm). Into the solution, 20 last-instar larvae of Culex pipiens pallens were released. One day after, the number of surviving Culex pipiens pallens was examined and the death rate of the pest was calculated.

The test system of a further assay is Musca domestica. Kind of assay: Test Example 4: filter paper/sucrose bait test on Musca domestica. The following applies: 24 h, read-out: pest death rate. The procedure:
A formulation of any one of the present compounds (1), (4), (5), (7), (11), (12), (13), (18t), (18c), (19), (20), (21), (22), (24), (25t), (25c), (26t), (26c), (27), (29), (30), (31), (32), (33), (34), (35), (40), (41), (43), (49), (50) and (55) obtained according to Formulation Example 36 was diluted with water so that the active ingredient concentration was 500 ppm to obtain a test solution.
A filter paper having a diameter of 5.5 cm was spread on the bottom of a polyethylene cup having a diameter of 5.5 cm and 0.7 ml of the test solution was added dropwise onto the filter paper. As a bait 30 mg of sucrose was uniformly placed on the filter paper. Into the polyethylene cup, 10 female imagoes of Musca domestica were released and the cup was sealed with a lid. After 24 hours, the number of surviving Musca domestica was examined and the death rate of the pest was calculated.

The next assay has as its system Blattalla germanica. Kind of assay: Test Example 5: filter paper/sucrose bait test on Blattalla germanica. To be noted: for pest or weed control at 500 ppm: 144 h, read-out: pest death rate. The procedure: A formulation of any one of the present compounds (4), (5), (7), (12), (13), (18t), (18c), (22), (25t), (25c), (26t), (26c), (29), (30), (31), (32), (33), (34), (40), (41), (43), (49) and (55) obtained according to Formulation Example 36 was diluted with water so that the active ingredient concentration was 500 ppm to obtain a test solution.
A filter paper having a diameter of 5.5 cm was spread on the bottom of a polyethylene cup having a diameter of 5.5 cm and 0.7 ml of the test solution was added dropwise onto the filter paper. As a bait 30 mg of sucrose was uniformly placed on the filter paper. Into the polyethylene cup, 2 male imagoes of Blattalla germanica were released and the cup was sealed with a lid. After 6 days, the number of surviving Blattalla germanica was examined and the death rate of the pest was calculated.

In assay [1] the test system is Haemaphysalis longicornis. The assay can be described thus: Test Example 7: treated filter paper pouch test on ticks. The following applies: filter paper treated with 100 mg/m^2, non-blood-sucking nymphal ticks, 10 ticks/group, two days after; for pest or weed control at 100 mg/m2: Haemaphysalis longicornis, 48 h, read-out: pest death rate. The procedure:
Five milligrams of any one of the present compounds (4), (7), (18t), (22), (25t), (26t), (29), (30), (31), (32), (33), (34), (35), (40), (41), (42), (43), (44) and (55) was dissolved in 10 mL of acetone. One milliliter of the acetone solution was uniformly applied on one side of a filter paper (TOYO No. 2; 5×10 cm), so that the filter paper having a surface area of 50 cm^2 was treated with 100 mg/m^2 of the present compound. After drying, the filter paper was folded in two and its edges were clipped to make a pouch. Test ticks (non-blood-sucking nymphal ticks, Haemaphysalis longicornis, 10 ticks/group) were put into the pouch, and the pouch was sealed with clips. Two days after, the number of surviving ticks was examined and the death rate was calculated.

Molecules are shown by their SMILES.

Turning to `C#CC1=CCC(CS(=O)(=O)CCC(F)(F)F)CC1` (stereo not drawn), in the assay with Culex pipiens pallens, the pest or weed control at 3.5 ppm was ≥ 95%. The pest or weed control at 500 ppm in the assay on Musca domestica was ≥ 90%; in the assay on Blattalla germanica, 100%. Further, the pest or weed control at 100 mg/m2 in assay [1] was found to be 90%.

With `FC(F)(F)CCSCC1CCC2(CC1)OCCO2` [present compound (1)], in the assay with Musca domestica, the pest or weed control at 500 ppm was ≥ 90%.

Turning to `O=S(=O)(CCC(F)(F)F)CC1CCC(F)(F)CC1` [present compound (4), 1,1-difluoro-4-(3,3,3,-trifluoropropylsulfonylmethyl)cyclohexanone], the pest or weed control at 500 ppm in the assay on Musca domestica was ≥ 90%; with Blattalla germanica, 100%. Besides, the pest or weed control at 100 mg/m2 in assay [1] was 90%.

`O=S(=O)(CCC(F)(F)F)CC1CC=C(F)CC1` (stereo not drawn) [present compound (5)]: the figures for the pest or weed control at 500 ppm in the assay on Musca domestica and in the assay with Blattalla germanica were ≥ 90% and 100%, respectively.

Take `COC(=O)C(C1CCC(F)(F)CC1)S(=O)(=O)CCC(F)(F)F` (stereo not drawn) [present compound (11), methyl 2-(4,4-difluorocyclohexyl)-2-(3,3,3-trifluoropropylsulfonyl)acetate]: in the assay on Culex pipiens pallens, the pest or weed control at 3.5 ppm was ≥ 95%. The pest or weed control at 500 ppm in the assay with Musca domestica is ≥ 90%.

For `COC(=O)C(F)(C1CCC(F)(F)CC1)S(=O)(=O)CCC(F)(F)F` (stereo not drawn) [present compound (12), methyl 2-(4,4-difluorocyclohexyl)-2-fluoro-2-(3,3,3-trifluoropropylsulfonyl)acetate], the pest or weed control at 3.5 ppm in the assay with Culex pipiens pallens was ≥ 95%. The pest or weed control at 500 ppm was ≥ 90% with Musca domestica and 100% with Blattalla germanica.

As to `NC(=O)C(F)(C1CCC(F)(F)CC1)S(=O)(=O)CCC(F)(F)F` (stereo not drawn) [present compound (13), 2-(4,4-difluorocyclohexyl)-2-fluoro-2-(3,3,3-trifluoropropylsulfonyl)acetamide], in the assay with Culex pipiens pallens, the pest or weed control at 3.5 ppm was ≥ 95%. For the same molecule, the pest or weed control at 500 ppm in the assay with Musca domestica was ≥ 90%; in the assay with Blattalla germanica it was 100%.

On to `O=S(=O)(CCC(F)(F)F)CC1CCC(C=C(Br)Br)CC1` (stereo not drawn) [present compound (17), 1-(2,2-dibromovinyl)-4-(3,3,3-trifluoropropylsulfonylmethyl)cyclohexane], for which the pest or weed control at 3.5 ppm in the assay on Culex pipiens pallens is ≥ 95%.

For the molecule `COC(=O)CCC#CC1CCC(CS(=O)(=O)CCC(F)(F)F)CC1` (stereo not drawn) [present compound (19), 5-[4-(3,3,3-trifluoropropylsulfonylmethyl)cycohexanyl]-4-pentynic acid methyl ester], in the assay with Musca domestica, the pest or weed control at 500 ppm is ≥ 90%.

As to `N#CC1CCC(CS(=O)(=O)CCC(F)(F)F)CC1` (stereo not drawn) [present compound (20), 1-cyano-4-(3,3,3-trifluoropropylsulfonylmethyl)cyclohexane], the pest or weed control at 500 ppm in the assay on Musca domestica was ≥ 90%.

Take `CON=C1CCC(CS(=O)(=O)CCC(F)(F)F)CC1` (stereo not drawn) [present compound (21), 4-(3,3,3-trifluoropropylsulfonylmethyl)-cyclohexanone O-methyloxime]: in the assay with Musca domestica, the pest or weed control at 500 ppm is ≥ 90%.

As to `FC(F)(F)CCSCC1CCC(C=C(Br)Br)CC1` (stereo not drawn) [present compound (24), 1-(2,2-dibromovinyl)-4-(3,3,3-trifluoropropylthiomethyl)cyclohexane], the pest or weed control at 3.5 ppm in the assay on Culex pipiens pallens is ≥ 95%. The pest or weed control at 500 ppm with Musca domestica was ≥ 90%.

With `C#CC1CCC(CSCCC(F)(F)F)CC1` (stereo not drawn) [present compound (25c)], the pest or weed control at 3.5 ppm in the assay with Culex pipiens pallens was ≥ 95%. For the same molecule, the pest or weed control at 500 ppm was ≥ 90% in the assay with Musca domestica and 100% in the assay on Blattalla germanica.

As to `N#CC(C1CCC2(CC1)OCCO2)S(=O)(=O)CCC(F)(F)F` (stereo not drawn) [present compound (27), 2-(1,4-dioxaspiro[4.5]dec-8-yl)-2-(3,3,3-trifluoropropylsulfonyl)acetonitrile], the pest or weed control at 3.5 ppm in the assay with Culex pipiens pallens was ≥ 95%. The pest or weed control at 500 ppm in the assay with Musca domestica was ≥ 90%.

On to `C#CC1(O)CCC(C(C#N)S(=O)(=O)CCC(F)(F)F)CC1` (stereo not drawn) [present compound (30), 2-(4-ethynyl-4-hydroxycyclohexyl)-2-(3,3,3-trifluoropropylsulfonyl)acetonitrile], for which the pest or weed control at 500 ppm in the assay on Musca domestica is ≥ 90%; in the assay with Blattalla germanica, 100%. Besides, the pest or weed control at 100 mg/m2 in assay [1] came out at 90%.

In the case of `C#CC1(F)CCC(C(C#N)S(=O)(=O)CCC(F)(F)F)CC1` (stereo not drawn) [present compound (31), 2-(4-ethynyl-4-fluorocyclohexyl)-2-(3,3,3-trifluoropropylsulfonyl)acetonitrile], the pest or weed control at 500 ppm with Musca domestica was ≥ 90%; in the assay with Blattalla germanica it was 100%. In addition, the pest or weed control at 100 mg/m2 in assay [1] stood at 90%.

Take `C#CC1CCC=CC1C(C#N)S(=O)(=O)CCC(F)(F)F` (stereo not drawn) [present compound (32), 2-(4-ethynyl-cyclohexen-3-yl)-2-(3,3,3-trifluoropropylsulfonyl)acetonitrile]: the pest or weed control at 500 ppm was ≥ 90% in the assay on Musca domestica and 100% with Blattalla germanica. The pest or weed control at 100 mg/m2 in assay [1] amounted to 90%.

Consider `CCON=C1CCC(C(C#N)S(=O)(=O)CCC(F)(F)F)CC1` (stereo not drawn) [present compound (35), 2-[4-(ethoxyimino)cyclohexyl]-2-(3,3,3-trifluoropropylsufonyl)acetonitrile], for which the pest death rate in assay [1] was 90%.

`CC(C)(C)ON=C1CCC(C(C#N)S(=O)(=O)CCC(F)(F)F)CC1` (stereo not drawn) [present compound (36), 2-[4-(t-butoxyimino)cyclohexyl]-2-(3,3,3-trifluoropropylsulfonyl)acetonitrile]: in the assay with Culex pipiens pallens, the pest or weed control at 3.5 ppm is ≥ 95%.

Regarding `N#CC(C1CCC(=NOCc2ccccc2)CC1)S(=O)(=O)CCC(F)(F)F` (stereo not drawn) [present compound (38), 2-[4-(O-benzylhydroxylimino)cyclohexyl]-2-(3,3,3-trifluoropropylsulfonyl)acetonitrile], the pest or weed control at 3.5 ppm in the assay on Culex pipiens pallens was ≥ 95%.

Turning to `CCCC(C#N)(C1CCC(=NOC)CC1)S(=O)(=O)CCC(F)(F)F` (stereo not drawn) [present compound (42), 2-[4-(methoxyimino)cyclohexyl]-2-(3,3,3-trifluoropropylsulfonyl)pentanenitrile], the pest or weed control at 100 mg/m2 in assay [1] turned out to be 90%.

As to `C=CC(C)C(C#N)(C1CCC(=NOC)CC1)S(=O)(=O)CCC(F)(F)F` (stereo not drawn) [present compound (43), 2-[4-(methoxyimino)cyclohexyl]-3-methyl-2-(3,3,3-trifluoropropylsufonyl)-4-pentenenitrile], the pest death rate in the assay on Blattalla germanica (500 ppm, 0.7 ml on filter paper, 2 male imagoes of Blattalla germanica, after 6 days) was 100%; in assay [1], 90%.

For the molecule `C#CC(C)C(C#N)(C1CCC(=NOC)CC1)S(=O)(=O)CCC(F)(F)F` (stereo not drawn) [present compound (44), 2-[4-(methoxyimino)cyclohexyl]-3-methyl-2-(3,3,3-trifluoropropylsulfonyl)-4-pentynenitrile], the pest or weed control at 100 mg/m2 in assay [1] amounted to 90%.

As for `N#CC(C1CCCCC1)S(=O)(=O)CCC(F)(F)F` (stereo not drawn) [present compound (47), 2-cyclohexyl-2-(3,3,3-trifluoropropylsulfonyl)acetonitrile], in the assay on Culex pipiens pallens, the pest or weed control at 3.5 ppm is ≥ 95%.

As to `CC1CCC(C(C#N)S(=O)(=O)CCC(F)(F)F)CC1` (stereo not drawn) [present compound (49), 2-(4-methylcyclohexyl)-2-(3,3,3-trifluoropropylsulfonyl)acetonitrile], the pest or weed control at 3.5 ppm with Culex pipiens pallens was ≥ 95%. The pest or weed control at 500 ppm in the assay with Musca domestica is ≥ 90%; in the assay on Blattalla germanica it was 100%.

For `CC1(C)CCC(C(C#N)S(=O)(=O)CCC(F)(F)F)CC1` (stereo not drawn) [present compound (50), 2-(4,4-dimethylcyclohexyl)-2-(3,3,3-trifluoropropylsulfonyl)acetonitrile], the pest or weed control at 3.5 ppm in the assay with Culex pipiens pallens was ≥ 95%. Moreover, the pest or weed control at 500 ppm with Musca domestica was ≥ 90%.

The record behind these values is patent US8247596B2 (Sumitomo Chemical Company, Limited, priority 2007, dated 2012).
